# Measurements: patent US10889812B2, “Short non-coding protein regulatory RNAs (sprRNAs) and methods of use” (University of Maryland, Baltimore, priority 2014, dated 2021)
# “Also recorded” adds a separate entry of the source.
# Assays:
# HBE4 cells [1] = test: Quantitative cell migration assay; type: cell-based, human; conditions: HBE4, vs Scr control
# Description: (§1) For cell migration, we used two complementary assays. […] To compensate potential differences in the cell numbers among different treatment conditions, we seeded 10% less cells for Ant-163 treated HBE4 cells and 10% more cells for piR-L-163 transfected H1792 cells.
# (§2) Two complimentary methods were used. For quantitative fluorescent dye assay, Innocyto™ Cell migration Assay kit (EMD Millipore) was used. Briefly, 24 hrs after treatment, 1×10^5 cells (10% less for Ant-163 treated cells or 10% more for piR-L-163 treated cells) were loaded to the upper chamber with growth factor-free Keratinocyte-SFM for (HBE4 cells) or serum-free DMEM (for H1792 cells) with the bottom chamber exposed to completed culture medium. Negative controls were used with 3 μM Latrunculin A. After 12 hrs incubation, fluorescence was measured using a fluorescence plate reader 485 nm (excitation) and 520 nm (emission) according to the manufacturer's instruction. For wound-healing assay, cells (24 hrs after treatment with different DNA or RNA oligonucleotides) were grown to confluence followed by scratching with a pipette tip to create a gap. The floating cells were removed and the gaps were monitored/photographed every 12 hrs.
# H1792 cells [2] = test: Trans-well invasion assay; type: cell-based, human; conditions: H1792, vs control RNA oligonucleotides
# Description: (§3) We then tested the potential impact of piR-L-163 in cell migration and invasion, two of the properties involving ERM's biological functions (Fehon, R. G., Mclatchey, A. I. & Bretscher, A. Organizing the cell cortex: the role of ERM proteins. Nat Rev Mol Cell Biol. 11, 276-287 (2010); Hunter, K. W. Ezrin, a key component in tumor metastasis. Trends Mol. Med. 10, 201-204 (2004); Luo, Y. et al. Recognition of CD146 as an ERM-binding protein offers novel mechanisms for melanoma cell migration. Oncogene 31, 306-321 (2013); Clucas, J. & Valderrama, F. ERM proteins in cancer progression. J Cell Sci. 128, 1253 (2015)).
# (§4) Briefly, 24 hrs after transfection, 6×10^4 cells were placed in the upper chamber of Matrigel Invasion Chambers (BD Bioscience) with growth factor-free Keratinocyte-SFM and the bottom chamber were exposed to Keratinocyte-SFM medium supplemented with L-Glutamine, prequalified human recombinant EGF 1-53 and BPE. Invading cells were evaluated after 12 hrs according to the manufacturer's instruction. The numbers of invading cells were adjusted 15% downwards for Ant-163 treated cells or 15% upwards for piR-L-163 treated cells to compensate the differences for the proliferation rates.
# HBE4 cells [3] = test: Trans-well invasion assay; type: cell-based, human; conditions: HBE4, 12 hrs, vs Scr, after 15% downward adjustment
# Description: as §3, §4
# p-ERM = test: IP with anti-p-ERM antibody followed by RT-PCR in transfected H1792 cells; type: binding, human; conditions: H1792 cells transfected with the oligonucleotide
# Description: We next wanted to determine the site critical for piR-L-163's binding toP-ERM. We first analyzed the piR-L-163 sequence and identified a candidate motif “UUNNUUUNNUU” (SEQ ID NO:495) with potentially critical for the binding (FIG. 5a). We then generated 5 mutant forms of piR-L-163 named as M1-M5 (FIG. 5b and Table 3) to test their potential impact on the p-ERM binding. For this experiment, we used H1792 cells because these cells expressed extremely low level of endogenous piR-L-163 but considerable amount of p-ERM (FIG. 5c and FIG. 11a). H1792 cells were transfected with Scr (control), Ant-163, piR-L-163 (WT), or Mutant 1 (M1) to Mutant 5 (M5) RNA oligonucletides, respectively. An anti-p-ERM antibody was used for IP followed by RT-PCR using primers specific for Scr, Ant-163, piR-L-163, or M1-M5 (Table 6) to detect the corresponding oligonucleotides.
# To amplify sncRNAs, we added an adaptor to the 3′ end, a process including adaptor ligation, RT and PCR (de Vanssay, A. et al. Paramutation in Drosophila linked to emergence of a piRNA-producing locus. Nature 490, 112-115 (2012); Li, Z. et al. Characterization of viral and human RNAs smaller than canonical MicroRNAs. J Virol. 83, 12751-12758 (2009)). For adaptor ligation, the adaptor /5′rapp/CTGTAGGCACCATCAAT/3′ddc/ (SEQ ID NO:499) with both 5′ and 3′ modification was used. Briefly, mixed 1 μl (10 pmol, ˜55 ng) of RNA 3′ adaptor and 4.4 μl (˜100 ng) of purified sncRNAs in a 1.5 ml EP tube; Incubated at 72° C. for 2 min, then placed on ice immediately and kept it on ice for at least 1 min; Added the following reagents (New England Biolabs) to the above tube: 0.8 μl 10×RNA ligase buffer, 1 μl RNase inhibitor, and 1 μl single strand RNA ligase; Mixed it well and incubated at 37° C. for 1 hr, then terminated the reaction at 65° C. for 15 min. For RT, SuperScript™ III First-Strand Synthesis System (Invitrogen) was used according to the manufacturer's instructions with gene specific primer (5′-[…]-3′) (SEQ ID NO:500). For PCR, a common reverse primer (5′-[…]-3′) (SEQ ID NO:501) and primers specific for individual sncRNAs (Table 6). Amplification conditions were denaturation at 95° C. for 30 s (5 min for the first cycle), annealing at 60° C. for 20 s and extension at 72° C. for 20 s (2 min for the last cycle) for 25 cycles.
# For IP using anti-human Moesin or p-ERM antibodies, anti-Moesin (Clone Q480, Catalog No. 3150, Cell Signaling) or anti-p-ERM (Clone 41A3, Catalog No. 3149, Cell Signaling) antibodies were used and a rabbit IgG was used as a control. Briefly, Saturated protein G agarose beads (Sigma-Aldrich) with rabbit IgG, anti-Moesin or anti-p-ERM antibodies, respectively (1 μg antibody was used for 4 μl agarose beads) at 4° C. for 3 hrs, centrifuged at 2,200×g for 5 min, and discarded the upper aqueous phase; (2) Protein extracts prepared from cells using lysis buffer (20 mM Tris-cl, pH7.6, 150 mM NaCl, 20 mM KCl, 1.5 mM MgCl2, 0.5% NP-40, 0.5 mM PMSF) were pre-cleared using protein G agarose at 4° C. for 2 hrs, centrifuged at 2,200×g for 5 min, and transferred the upper aqueous phase to above tubes with agarose beads saturated with antibodies, respectively; Kept the tubes rotating overnight at 4° C., centrifuged at 2,200×g for 5 min, and washed the beads with lysis buffer twice; Extracted total RNAs from beads using Trizol Reagent (Life Technologies); Amplification of piR-L-163 or its mutants was performed according to the steps described in the “RT-PCR” section.
# H1792 cells [4] = test: Quantitative cell migration assay; type: cell-based, human; conditions: H1792, vs Scr or Ant-163
# Description: as §1, §2
# F-actin and EBP50 = test: Binding of p-ERM/moesin with F-actin and EBP50 in IP products of H522 cells; type: cell-based, human; conditions: together with Moesin-WT
substance,measurement,setting,value
"Ant-163: DNA sequence antisense to piR-L-163, SEQ ID NO:496, 5′-GGTCAGAGAATCAAAGTAACATCATGATAT-3′ (DNA, backbone and methylation of C not given here)",cell migration,HBE4 cells [1],significantly increased cell migration
same,invasion capability,H1792 cells [2],no impact
same,invasion capability,HBE4 cells [3],significantly increased invasion capability; also recorded: increased invading cells
same,oligonucleotide detected by RT-PCR in anti-p-ERM IP products (binding to p-ERM),p-ERM,no RT-PCR band could be detected
"piR-L-163: sprRNA, SEQ ID NO:282; piRNA-L aligned to intron 10 of LAMC2; AUAUCAUGAUGUUACUUUGAUUCUCUGACC with 3′ 2′-O-methylation (listed as RNA, chemistry not fully specified; listed as Homo sapiens)",cell migration,H1792 cells [4],significantly decreased cell migration
same,invasion capability,H1792 cells [2],significantly decreased invasion capability; also recorded: significantly reduced the number of invading cells
same,oligonucleotide detected by RT-PCR in anti-p-ERM IP products (binding to p-ERM),p-ERM,strong RT-PCR band was detected
same,binding of moesin with F-actin and EBP50,F-actin and EBP50,enhanced binding with F-actin and EBP50
